Values of other authors in patent US20250049817A1, “JAK INHIBITOR WITH A VITAMIN D ANALOG FOR TREATMENT OF SKIN DISEASES” (INCYTE CORPORATION, priority 2020, published 2025).

How the values were obtained:
[1] = test system: T cells in psoriasis lesions; settings: psoriasis patients, topical treatment, skin biopsies; cited from earlier work
keratinocyte cell line = settings: concentration-dependent; read-out: IC50 for decreasing keratinocyte cell line proliferation; cited from earlier work

C=C1/C(=C\C=C2/CCC[C@]3(C)[C@@H]([C@H](C)/C=C/[C@@H](O)C4CC4)CC[C@@H]23)C[C@@H](O)C[C@@H]1O [calcipotriol]
CD8(+) IL-17(+) T cells [1]: significant decrease | frequency of IL-22(+) or IFN-γ(+) cells in psoriasis lesions [1]: no changes | IC50 (keratinocyte cell line): 10 to 100 nM
